Results: ChEMBL document CHEMBL1201862, “PubChem BioAssay data set” (2004)
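Tested at 5 concentrations; 48 h exposure; 96-well plates; endpoints linearly interpolated, else capped at highest concentration. Abbreviation: GI50, concentration required for 50% inhibition of growth.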 Calls of active or inactive are those of the source. Rule as the data show it: active = GI50 up to about 1.1 µM and inactive = higher.

Columns and labels:
Experiment in all cases: inhibition of tumour cell growth, NCI panel, 48 h
HOP-62 = tested on: HOP-62
NCI-H522 = tested on: NCI-H522
SF-295 = tested on: SF-295
NCI-H226 = tested on: NCI-H226
HCC 2998 = tested on: HCC 2998
ACHN = tested on: ACHN
OVCAR-4 = tested on: OVCAR-4
Malme-3M = tested on: Malme-3M
U-251 = tested on: U-251
786-0 = tested on: 786-0
SF-268 = tested on: SF-268
SNB-78 = tested on: SNB-78
RXF 631 = tested on: RXF 631
M14 = tested on: M14
SR = tested on: SR
LXFL 529 = tested on: LXFL 529
XF498 = tested on: XF498
UO-31 = tested on: UO-31
SK-MEL-2 = tested on: SK-MEL-2
SF-539 = tested on: SF-539
HCT-116 = tested on: HCT-116
SNB-19 = tested on: SNB-19
HCT-15 = tested on: HCT-15
EKVX = tested on: EKVX
NCI-H23 = tested on: NCI-H23
K562 = tested on: K562
A549 = tested on: A549
LOX IMVI = tested on: LOX IMVI
SW-620 = tested on: SW-620
SN12C = tested on: SN12C
MOLT-4 = tested on: MOLT-4
DMS-273 = tested on: DMS-273
HT-29 = tested on: HT-29
OVCAR-5 = tested on: OVCAR-5
SNB-75 = tested on: SNB-75
OVCAR-8 = tested on: OVCAR-8
OVCAR-3 = tested on: OVCAR-3
KM12 = tested on: KM12
IGROV-1 = tested on: IGROV-1
SK-MEL-5 = tested on: SK-MEL-5
M19-MEL = tested on: M19-MEL
CAKI-1 = tested on: CAKI-1
RPMI-8226 = tested on: RPMI-8226
SK-MEL-28 = tested on: SK-MEL-28
CCRF-CEM = tested on: CCRF-CEM
NCI-H460 = tested on: NCI-H460
KM-20L2 = tested on: KM-20L2
COLO 205 = tested on: COLO 205
DLD-1 = tested on: DLD-1
UACC-257 = tested on: UACC-257
SK-OV-3 = tested on: SK-OV-3
DMS-114 = tested on: DMS-114
UACC-62 = tested on: UACC-62
HOP-92 = tested on: HOP-92
A498 = tested on: A498
HL-60 = tested on: HL-60
TK-10 = tested on: TK-10
HOP-18 = tested on: HOP-18
RXF 393 = tested on: RXF 393
MCF7 = tested on: MCF7
T47D = tested on: T47D
PC-3 = tested on: PC-3
MDA-MB-231 = tested on: MDA-MB-231
NCI/ADR-RES = tested on: NCI/ADR-RES
DU-145 = tested on: DU-145
MDA-MB-435 = tested on: MDA-MB-435
BT-549 = tested on: BT-549
MDA-N = tested on: MDA-N

Measured: GI50

Cc1nc2c(nc1Cl)nc(Oc1ccc(Cl)cc1)c1ccccc12
inactive: HOP-62 28.6 µM | NCI-H522 50.9 µM | SF-295 37.2 µM | NCI-H226 27.9 µM | HCC 2998 > 100 µM | ACHN 39.5 µM | OVCAR-4 32 µM | Malme-3M 74.3 µM | U-251 19.5 µM | 786-0 18.6 µM | SF-268 56.8 µM | SNB-78 59.4 µM | RXF 631 > 100 µM | M14 85.7 µM | SR > 100 µM | LXFL 529 51.4 µM | XF498 73.3 µM | UO-31 27 µM | SK-MEL-2 > 100 µM | SF-539 90.8 µM | HCT-116 41.7 µM | SNB-19 82.8 µM | EKVX > 100 µM | NCI-H23 45.8 µM | K562 > 100 µM | A549 34.6 µM | LOX IMVI 59.6 µM | SW-620 50.4 µM | SN12C 43.6 µM | MOLT-4 > 100 µM | DMS-273 46.5 µM | HT-29 > 100 µM | OVCAR-5 > 100 µM | SNB-75 26.7 µM | OVCAR-8 23.9 µM | OVCAR-3 > 100 µM | KM12 > 100 µM | IGROV-1 55.7 µM | SK-MEL-5 57.5 µM | M19-MEL > 100 µM | CAKI-1 > 100 µM | RPMI-8226 > 100 µM | SK-MEL-28 > 100 µM | CCRF-CEM > 100 µM | NCI-H460 62.4 µM | KM-20L2 > 100 µM | COLO 205 > 100 µM | DLD-1 49.9 µM | UACC-257 > 100 µM | SK-OV-3 > 100 µM | DMS-114 47.5 µM | UACC-62 48.2 µM
> 100 µM: HCT-15

O=C(Nc1ccc(C(F)(F)F)cc1[N+](=O)[O-])C(=O)C1NC(=S)NC1=O (configuration not stated)
> 100 µM: HCT-15
inactive: HOP-62 > 100 µM | NCI-H522 > 100 µM | SF-295 > 100 µM | HOP-92 43.7 µM | NCI-H226 11 µM | HCC 2998 > 100 µM | ACHN > 100 µM | A498 53 µM | OVCAR-4 > 100 µM | HL-60 > 100 µM | Malme-3M > 100 µM | U-251 > 100 µM | 786-0 > 100 µM | SF-268 > 100 µM | SNB-78 > 100 µM | RXF 631 82.2 µM | M14 > 100 µM | SR > 100 µM | LXFL 529 > 100 µM | UO-31 > 100 µM | SK-MEL-2 > 100 µM | SF-539 > 100 µM | HCT-116 > 100 µM | SNB-19 > 100 µM | EKVX 4.86 µM | TK-10 > 100 µM | NCI-H23 > 100 µM | K562 > 100 µM | A549 > 100 µM | LOX IMVI > 100 µM | SW-620 > 100 µM | SN12C 2.26 µM | MOLT-4 > 100 µM | DMS-273 > 100 µM | HT-29 > 100 µM | OVCAR-5 > 100 µM | SNB-75 26.6 µM | OVCAR-8 > 100 µM | OVCAR-3 > 100 µM | KM12 > 100 µM | IGROV-1 > 100 µM | SK-MEL-5 > 100 µM | M19-MEL > 100 µM | CAKI-1 54.1 µM | RPMI-8226 > 100 µM | SK-MEL-28 > 100 µM | HOP-18 > 100 µM | CCRF-CEM > 100 µM | NCI-H460 > 100 µM | KM-20L2 > 100 µM | COLO 205 13.5 µM | DLD-1 > 100 µM | UACC-257 > 100 µM | SK-OV-3 > 100 µM | RXF 393 > 100 µM | DMS-114 > 100 µM | UACC-62 > 100 µM

COc1c(Cl)cc(NC(=S)C#N)cc1Cl
inactive: HOP-62 24.5 µM | NCI-H522 19.4 µM | SF-295 29.5 µM | HOP-92 22.6 µM | NCI-H226 22.5 µM | HCC 2998 15.9 µM | ACHN 25.6 µM | A498 19.1 µM | OVCAR-4 29.2 µM | HL-60 > 100 µM | Malme-3M 20.6 µM | U-251 17.7 µM | 786-0 28.3 µM | SF-268 31.2 µM | MCF7 24.4 µM | T47D 12.6 µM | SNB-78 26.7 µM | RXF 631 19.7 µM | M14 24.5 µM | SR 23.8 µM | LXFL 529 22.2 µM | PC-3 24.3 µM | UO-31 22.3 µM | SK-MEL-2 23.4 µM | SF-539 23.8 µM | HCT-116 16.4 µM | SNB-19 32.9 µM | EKVX 22.2 µM | TK-10 33.8 µM | MDA-MB-231 17 µM | NCI-H23 19.3 µM | NCI/ADR-RES 22.1 µM | K562 > 52.2 µM | A549 23.4 µM | DU-145 35.6 µM | LOX IMVI 20 µM | SW-620 31.3 µM | SN12C 20.1 µM | MOLT-4 32.9 µM | DMS-273 30.3 µM | HT-29 22.8 µM | OVCAR-5 37.1 µM | SNB-75 22.5 µM | OVCAR-8 28.4 µM | OVCAR-3 20.8 µM | KM12 30.4 µM | IGROV-1 27.1 µM | SK-MEL-5 15.8 µM | M19-MEL 19.5 µM | CAKI-1 22.7 µM | MDA-MB-435 25 µM | BT-549 16.6 µM | RPMI-8226 22.8 µM | SK-MEL-28 26.7 µM | HOP-18 8.53 µM | CCRF-CEM > 53.8 µM | NCI-H460 23.9 µM | MDA-N 25.5 µM | KM-20L2 20.1 µM | COLO 205 17.8 µM | DLD-1 31.7 µM | UACC-257 19.9 µM | SK-OV-3 29.7 µM | RXF 393 27.3 µM | DMS-114 15.6 µM | UACC-62 15.1 µM
18.4 µM: HCT-15

O=S(O)CCCSSSCCCS(=O)O
inactive: HOP-62 > 100 µM | NCI-H522 > 100 µM | HCC 2998 > 100 µM | ACHN > 100 µM | A498 > 100 µM | OVCAR-4 > 100 µM | HL-60 > 100 µM | Malme-3M > 100 µM | U-251 > 100 µM | SF-268 > 100 µM | SNB-78 > 100 µM | RXF 631 > 100 µM | M14 > 100 µM | SR > 100 µM | LXFL 529 > 100 µM | XF498 > 100 µM | UO-31 > 100 µM | SK-MEL-2 > 100 µM | SF-539 > 100 µM | HCT-116 > 100 µM | SNB-19 > 100 µM | EKVX > 100 µM | TK-10 > 100 µM | NCI-H23 > 100 µM | K562 > 100 µM | LOX IMVI > 100 µM | SN12C > 100 µM | MOLT-4 > 100 µM | HT-29 > 100 µM | OVCAR-5 > 100 µM | SNB-75 > 100 µM | OVCAR-3 > 100 µM | KM12 > 100 µM | M19-MEL > 100 µM | SK-MEL-28 > 100 µM | CCRF-CEM > 100 µM | NCI-H460 > 100 µM | KM-20L2 > 100 µM | DLD-1 > 100 µM | UACC-257 > 100 µM | SK-OV-3 > 100 µM | RXF 393 > 100 µM | DMS-114 > 100 µM | UACC-62 > 100 µM
